Results taken from patent US9796700B2 (Celgene CAR LLC, priority 2013, dated 2017).
Like-named read-outs stand apart in the source and are kept apart here.

Experiments:
Erk1 = Erk1 (Homo sapiens (Human), UniProt P27361); test: Protein Mass Modification Assay (intact protein MALDI); assay type: binding
Procedure, shortened: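 Human Erk1 was incubated 60 min at room temperature with a 10-fold molar excess of compound, then analysed as intact protein by MALDI with sinapinic acid matrix. The centroid mass shift versus untreated protein was divided by compound molecular weight to give percent modified protein.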

MEK1 activated ERK1 = MEK1 activated ERK1 (Homo sapiens (Human), UniProt P27361); test: Omnia continuous-read kinase assay for potency against MEK1 activated ERK1; assay type: biochemical
Excerpt: Omnia Assay Protocol for Potency Assessment Against MEK1 Activated ERK1:
The protocol below describes continuous-read kinase assays to measure potency of compounds against activated ERK1 enzyme. The mechanics of the assay platform are best described by the vendor (Invitrogen, Carlsbad, Calif.) on their website at the following URL: invitrogen.com/site/us/en/home.html.
Briefly, a 1.25× stock of ERK1 enzyme (14-439-K) from Millipore (Billerica, Mass.), 5×ATP (AS001A) and ST17-Sox conjugated peptide substrate (KNZ1171C) were prepared in 1× kinase reaction buffer consisting of 20 mM Tris, pH 7.5, 5 mM MgCl2, 1 mM EGTA, 5 mM β-glycerophosphate, 5% glycerol (10× stock, KB002A) and 0.2 mM DTT. 10 μL of ATP/ST17-sox peptide substrate mix was combined with 0.5 μL volume of 100% DMSO and serially diluted compounds were prepared in 100% DMSO in a Corning (#3574) 384-well, white, non-binding surface microtiter plate (Corning, N.Y.). Kinase reactions were started with the addition of 40 μL of ERK1 solution and monitored every 71 seconds for 30-240 minutes at λex360/λem485 in a Synergy plate reader from BioTek (Winooski, Vt.). At the conclusion of each assay, progress curves from each well were examined for linear reaction kinetics and fit statistics (R^2, 95% confidence interval, absolute sum of squares). Initial velocity (0 minutes to ˜30+ minutes) from each reaction was determined from the slope of a plot of relative fluorescence units vs time (minutes or seconds) and then plotted against inhibitor concentration to estimate ^AppIC50 from log [Inhibitor] vs Response, Variable Slope model in GraphPad Prism from GraphPad Software (San Diego, Calif.).
[Reagent] used in optimized protocol:
[ERK1]=4 nM, [ATP]=50 μM, [ST17-Sox]=10 μM (ATP ^appKM 48 μM)
The results of this assay show the degree of inhibition of ERK activity, which is a direct measurement of inhibition of ERK activity. Results from this assay are reported in Table A under the column “ERK1 Omnia WT ATP KM IC50 (nM).”

[1] = MEK1 activated ERK1, WT, ATP at KM

Chain of MEK1 activated ERK1 (P27361 whole entry): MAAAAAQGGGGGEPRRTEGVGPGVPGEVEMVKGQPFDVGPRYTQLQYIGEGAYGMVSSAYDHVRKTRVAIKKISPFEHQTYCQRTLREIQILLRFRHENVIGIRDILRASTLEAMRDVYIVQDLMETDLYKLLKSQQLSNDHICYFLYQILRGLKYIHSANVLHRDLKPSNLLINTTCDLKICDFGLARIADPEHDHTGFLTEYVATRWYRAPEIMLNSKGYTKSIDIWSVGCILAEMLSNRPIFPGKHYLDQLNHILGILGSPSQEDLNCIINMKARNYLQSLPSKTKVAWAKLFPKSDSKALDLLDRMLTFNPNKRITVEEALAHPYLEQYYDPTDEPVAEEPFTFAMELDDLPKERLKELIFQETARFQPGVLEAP
Chain of Erk1 (P27361 whole entry, looked up): as the sequence (P27361 whole entry) above

ERK1 Mass Mod (%) (Erk1)	IC50 (MEK1 activated ERK1; [1]) [nM]	SMILES	IC50 (MEK1 activated ERK1; read-out: ERK1 Omnia WT ATP KM IC50) [nM]
E (provided a mass modification of ≧70%)	< 100	C=CC(=O)Nc1cc(C)ccc1Nc1nc(Nc2cc(OC)ncc2C)ncc1C(F)(F)F [Compound I-90, N-(2-((2-((2-Methoxy-5-methylpyridin-4-yl)amino)-5-(trifluoromethyl)pyrimidin-4-yl)amino)-5-methylphenyl)acrylamide]	
E (provided a mass modification of ≧70%)	> 1000	C=CC(=O)Nc1cc(OC)ccc1Nc1nc(Nc2ccc(N3CCNCC3)cc2OC)ncc1Cl [Compound I-162, N-(2-((5-chloro-2-((2-methoxy-4-(piperazin-1-yl)phenyl)amino)pyrimidin-4-yl)amino)-5-methoxyphenyl)acrylamide]	
G (proived a mass modification ≦30%)	> 1000	C=CC(=O)Nc1ccccc1Nc1nc(Nc2ccc(N3CCC[C@H]3CO)cc2C#N)ncc1Cl [Compound I-160, (S)—N-(2-((5-chloro-2-((2-cyano-4-(2-(hydroxymethyl)pyrrolidin-1-yl)phenyl)amino)pyrimidin-4-yl)amino)phenyl)acrylamide]	
E (provided a mass modification of ≧70%)	< 100	C=CC(=O)Nc1cc(F)ccc1Nc1nc(Nc2cc(OC)ncc2C)ncc1C(F)(F)F [Compound I-322, N-(5-fluoro-2-((2-((2-methoxy-5-methylpyridin-4-yl)amino)-5-(trifluoromethyl)pyrimidin-4-yl)amino)phenyl)acrylamide]	
G (proived a mass modification ≦30%)	> 1000	CCC(=O)Nc1ccccc1Nc1nc(Nc2ccc3c(c2OC)CCCC(=O)N3CC)ncc1Cl [Compound I-315, N-(2-((5-chloro-2-((1-ethyl-6-methoxy-2-oxo-2,3,4,5-tetrahydro-1H-benzo[b]azepin-7-yl)amino)pyrimidin-4-yl)amino)phenyl)propionamide]	
E (provided a mass modification of ≧70%)	> 1000	C=CC(=O)Nc1ccccc1Nc1nc(Nc2ccc(NC(=O)OC)cc2OC)ncc1Cl [Compound I-184, methyl (4-((4-((2-acrylamidophenyl)amino)-5-chloropyrimidin-2-yl)amino)-3-methoxyphenyl)carbamate]	
G (proived a mass modification ≦30%)	< 100	CCC(=O)Nc1ccccc1Nc1nc(Nc2ccc3c(c2)CCCC(=O)N3CCCN)ncc1Cl [Compound I-314, N-(2-((2-((1-(3-aminopropyl)-2-oxo-2,3,4,5-tetrahydro-1H-benzo[b]azepin-7-yl)amino)-5-chloropyrimidin-4-yl)amino)phenyl)propionamide]	
G (proived a mass modification ≦30%)	> 1000	C/C=C/C(=O)Nc1ccccc1Nc1nc(Nc2cc(C(N)=O)ccc2C)ncc1Cl [Compound I-219, (E)-3-((4-((2-(but-2-enamido)phenyl)amino)-5-chloropyrimidin-2-yl)amino)-4-methylbenzamide]	
E (provided a mass modification of ≧70%)		C=CC(=O)Nc1ccccc1Nc1nc(Nc2ccnnc2)ncc1C(F)(F)F [Compound I-293, N-(2-((2-(Pyridazin-4-ylamino)-5-(trifluoromethyl)pyrimidin-4-yl)amino)phenyl) acrylamide]	
E (provided a mass modification of ≧70%)		C=CC(=O)Nc1cc(C)ccc1Nc1nc(Nc2cc(NC3CC3)nc(OC)c2)ncc1C(F)(F)F [Compound I-337, N-(2-((2-((2-(cyclopropylamino)-6-methoxypyridin-4-yl)amino)-5-(trifluoromethyl)pyrimidin-4-yl)amino)-5-methylphenyl)acrylamide]	
E (provided a mass modification of ≧70%)		C=CC(=O)Nc1ccccc1Nc1nc(N[C@H]2CCCN(C(=O)[C@H](O)CO)C2)ncc1C(F)(F)F [Compound I-51, N-(2-((2-(((S)-1-((R)-2,3-Dihydroxypropanoyl)piperidin-3-yl)amino)-5-(trifluoromethyl)pyrimidin-4-yl)amino)phenyl)acrylamide]	
E (provided a mass modification of ≧70%)		C=CC(=O)Nc1ccccc1Nc1nc(Nc2cc(C(=O)NCCO)c(F)cc2C)ncc1C(F)(F)F [Compound I-81, 5-((4-((2-Acrylamidophenyl)amino)-5-(trifluoromethyl)pyrimidin-2-yl)amino)-2-fluoro-N-(2-hydroxyethyl)-4-methylbenzamide]	

Continued, compound first:

SMILES	ERK1 Mass Mod (%) (Erk1)	IC50 (MEK1 activated ERK1; [1]) [nM]	IC50 (MEK1 activated ERK1; read-out: ERK1 Omnia WT ATP KM IC50) [nM]
C=CC(=O)Nc1ccccc1Oc1nc(Nc2ccc(N3CCN(C(C)=O)CC3)cc2OC)ncc1Cl [Compound I-259, N-(2-((2-((4-(4-acetylpiperazin-1-yl)-2-methoxyphenyl)amino)-5-chloropyrimidin-4-yl)oxy)phenyl)acrylamide]	F (provided a mass modification of 31-69%)	> 1000	
C=CC(=O)Nc1ccccc1Nc1nc(N[C@H]2CCCN(C(=O)OC)C2)ncc1C(F)(F)F [Compound I-17, (S)-Methyl 3-((4-((2-acrylamidophenyl)amino)-5-(trifluoromethyl)pyrimidin-2-yl)amino) piperidine-1-carboxylate]	F (provided a mass modification of 31-69%)	< 100	
C=CC(=O)N[C@H]1CCC[C@@H]1Nc1nc(Nc2cc(C(N)=O)ccc2C)ncc1Cl [Compound I-215, 3-((4-(((1 S,2S)-2-acrylamidocyclopentyl)amino)-5-chloropyrimidin-2-yl)amino)-4-methylbenzamide]	G (proived a mass modification ≦30%)	> 1000	
C=CC(=O)Nc1cc(OC)ccc1Oc1nc(Nc2ccc(N3CCC[C@@H]3CO)cc2OC)ncc1C(N)=O [Compound I-264, (R)-4-(2-acrylamido-4-methoxyphenoxy)-2-((4-(2-(hydroxymethyl)pyrrolidin-1-yl)-2-methoxyphenyl)amino)pyrimidine-5-carboxamide]	F (key: E: provided a mass modification of ≧70%; F: provided a mass modification of 31-69%; G: proived a mass modification ≦30%)		501 to 999
CCC(=O)Nc1ccccc1Nc1nc(N[C@H]2CCCN(C(=O)CO)C2)ncc1Cl [Compound I-311, (S)—N-(2-((5-chloro-2-((1-(2-hydroxyacetyl)piperidin-3-yl)amino)pyrimidin-4-yl)amino)phenyl)propionamide]		< 100	
C=CC(=O)Nc1cc(OC)ccc1Nc1nc(Nc2ccc(N3CCC[C@H]3CO)cc2C#N)ncc1Cl [Compound I-163, (S)—N-(2-((5-chloro-2-((2-cyano-4-(2-(hydroxymethyl)pyrrolidin-1-yl)phenyl)amino)pyrimidin-4-yl)amino)-5-methoxyphenyl)acrylamide]	E (provided a mass modification of ≧70%)		
C=CC(=O)N[C@@H]1CCCC[C@H]1Oc1nc(Nc2cc(C(=O)NOC)ccc2C)ncc1C(N)=O (racemic) [Compound I-269, Rac-trans-4-((2-acrylamidocyclohexyl)oxy)-2-((5-(methoxycarbamoyl)-2-methylphenyl)amino)pyrimidine-5-carboxamide]	G (proived a mass modification ≦30%)		
C=CC(=O)Nc1cc(OC)ccc1Nc1nc(Nc2ccc(N(CC)C(C)=O)cc2OC)ncc1Cl [Compound I-175, N-(2-((5-chloro-2-((4-(N-ethylacetamido)-2-methoxyphenyl)amino)pyrimidin-4-yl)amino)-5-methoxyphenyl)acrylamide]	E (provided a mass modification of ≧70%)		
C=CC(=O)Nc1ccccc1Nc1nc(Nc2ccc(F)cc2OC)ncc1Cl [Compound I-210, N-(2-((5-chloro-2-((4-fluoro-2-methoxyphenyl)amino)pyrimidin-4-yl)amino)phenyl)acrylamide]	F (provided a mass modification of 31-69%)		
C=CC(=O)N[C@@H]1CCCC[C@H]1Nc1nc(N[C@H]2CCCN(C(=O)CO)C2)ncc1C(F)(F)F [Compound I-32, N-((1R,2R)-2-((2-(((S)-1-(2-hydroxyacetyl)piperidin-3-yl)amino)-5-(trifluoromethyl)pyrimidin-4-yl)amino)cyclohexyl)acrylamide]	F (key: E: provided a mass modification of ≧70%; F: provided a mass modification of 31-69%; G: proived a mass modification ≦30%)		
